Source: the NIST ThermoML archive (doi:10.1016/j.fluid.2018.09.026)
Where “and” joins values, the source holds several entries; their conditions need not be identical. Equal values may be shown once.

Details: Liquid; for mass density: Vibrating tube method; for viscosity: Vibrating wire viscometry

OCCOCCOCCO [triethylene glycol]
Details	mass density	viscosity
333.15 K, 2100 kPa	1092.7 kg/m3	–
333.15 K, 3070 kPa	1093.2 kg/m3	–
333.15 K, 5060 kPa	1094.2 kg/m3	–
333.15 K, 6980 kPa	1095.2 kg/m3	–
333.15 K, 9970 kPa	1096.6 kg/m3	–
333.15 K, 14840 kPa	1099 kg/m3	–
333.15 K, 19660 kPa	1101.3 kg/m3	–
333.15 K, 24670 kPa	1103.7 kg/m3	–
333.15 K, 29610 kPa	1106 kg/m3	–
333.15 K, 34530 kPa	1108.2 kg/m3	–
333.15 K, 39400 kPa	1110.3 kg/m3	–
333.15 K, 44280 kPa	1112.5 kg/m3	–
333.15 K, 49110 kPa	1114.5 kg/m3	–
333.15 K, 54040 kPa	1116.5 kg/m3	–
333.15 K, 59060 kPa	1118.6 kg/m3	–
333.15 K, 63830 kPa	1120.5 kg/m3	–
333.15 K, 68770 kPa	1122.4 kg/m3	–
333.21 K, 150 kPa	–	9.306 mPa·s [middle of 4 runs]
333.21 K, 170 kPa	–	9.339 mPa·s [middle of 7 runs]
333.21 K, 750 kPa	–	9.338 mPa·s
333.21 K, 760 kPa	–	9.422 mPa·s and 9.347 mPa·s
333.21 K, 790 kPa	–	9.383 mPa·s
333.21 K, 1460 kPa	–	9.386 mPa·s [middle of 4 runs]
333.21 K, 1470 kPa	–	9.379 mPa·s and 9.375 mPa·s and 9.363 mPa·s
333.21 K, 4930 kPa	–	9.61 mPa·s
333.21 K, 4940 kPa	–	9.609 mPa·s and 9.653 mPa·s
333.21 K, 4950 kPa	–	9.655 mPa·s [middle of 4 runs]
333.21 K, 4970 kPa	–	9.688 mPa·s and 9.672 mPa·s
333.21 K, 4980 kPa	–	9.595 mPa·s and 9.684 mPa·s
333.21 K, 4990 kPa	–	9.704 mPa·s
333.21 K, 5030 kPa	–	9.613 mPa·s
333.21 K, 9610 kPa	–	10.02 mPa·s
333.21 K, 9620 kPa	–	9.96 mPa·s and 9.899 mPa·s
333.21 K, 9680 kPa	–	9.927 mPa·s
333.21 K, 9690 kPa	–	9.942 mPa·s and 9.978 mPa·s
333.21 K, 9700 kPa	–	9.918 mPa·s
333.21 K, 9720 kPa	–	9.986 mPa·s
333.21 K, 20900 kPa	–	10.78 mPa·s
333.21 K, 20930 kPa	–	10.79 mPa·s
333.21 K, 20940 kPa	–	10.78 mPa·s and 10.79 mPa·s
333.21 K, 29220 kPa	–	11.36 mPa·s
333.21 K, 29260 kPa	–	11.37 mPa·s
333.21 K, 29290 kPa	–	11.28 mPa·s
333.21 K, 29370 kPa	–	11.48 mPa·s
333.21 K, 29400 kPa	–	11.32 mPa·s
333.21 K, 29410 kPa	–	11.32 mPa·s
333.21 K, 29450 kPa	–	11.36 mPa·s
333.21 K, 29460 kPa	–	11.34 mPa·s
333.21 K, 29490 kPa	–	11.36 mPa·s
333.21 K, 29520 kPa	–	11.49 mPa·s
333.21 K, 29730 kPa	–	11.35 mPa·s
333.21 K, 29740 kPa	–	11.35 mPa·s
333.21 K, 29760 kPa	–	11.47 mPa·s
333.21 K, 29770 kPa	–	11.42 mPa·s
333.21 K, 37210 kPa	–	11.94 mPa·s
333.21 K, 37260 kPa	–	12.04 mPa·s
333.21 K, 37430 kPa	–	11.99 mPa·s
333.21 K, 37490 kPa	–	12.07 mPa·s
333.21 K, 38020 kPa	–	12.13 mPa·s
333.21 K, 38150 kPa	–	12.06 mPa·s
333.21 K, 38270 kPa	–	12.05 mPa·s
333.21 K, 47910 kPa	–	12.77 mPa·s
333.21 K, 48010 kPa	–	12.75 mPa·s
333.21 K, 48280 kPa	–	12.76 mPa·s
333.21 K, 49590 kPa	–	12.91 mPa·s
333.21 K, 49640 kPa	–	13.01 mPa·s
333.21 K, 49670 kPa	–	12.99 mPa·s
333.21 K, 49700 kPa	–	12.96 mPa·s
333.21 K, 49730 kPa	–	12.91 mPa·s
333.21 K, 68790 kPa	–	14.61 mPa·s
333.21 K, 69130 kPa	–	14.52 mPa·s
333.21 K, 69650 kPa	–	14.74 mPa·s
343.08 K, 200 kPa	–	6.978 mPa·s and 6.969 mPa·s and 6.931 mPa·s
343.08 K, 1160 kPa	–	6.971 mPa·s [middle of 4 runs]
343.08 K, 4890 kPa	–	7.185 mPa·s
343.08 K, 4900 kPa	–	7.179 mPa·s and 7.239 mPa·s and 7.214 mPa·s
343.08 K, 9750 kPa	–	7.392 mPa·s
343.08 K, 9760 kPa	–	7.403 mPa·s
343.08 K, 9770 kPa	–	7.403 mPa·s
343.08 K, 20580 kPa	–	8.071 mPa·s and 7.965 mPa·s
343.08 K, 20590 kPa	–	8.036 mPa·s and 7.937 mPa·s
343.08 K, 20600 kPa	–	8.08 mPa·s
343.08 K, 30330 kPa	–	8.459 mPa·s
343.08 K, 30350 kPa	–	8.469 mPa·s and 8.515 mPa·s and 8.474 mPa·s
343.08 K, 30390 kPa	–	8.519 mPa·s
343.08 K, 39560 kPa	–	8.994 mPa·s
343.08 K, 39590 kPa	–	9.055 mPa·s
343.08 K, 39640 kPa	–	9.065 mPa·s
343.08 K, 50360 kPa	–	9.671 mPa·s
343.08 K, 50420 kPa	–	9.687 mPa·s
343.08 K, 50470 kPa	–	9.572 mPa·s
343.08 K, 50570 kPa	–	9.608 mPa·s
343.08 K, 67230 kPa	–	10.62 mPa·s
343.08 K, 67540 kPa	–	10.64 mPa·s
343.08 K, 67870 kPa	–	10.63 mPa·s
343.15 K, 100 kPa	1083.9 kg/m3	–
343.15 K, 640 kPa	1084.2 kg/m3	–
343.15 K, 1120 kPa	1084.4 kg/m3	–
343.15 K, 1600 kPa	1084.7 kg/m3	–
343.15 K, 2110 kPa	1084.9 kg/m3	–
343.15 K, 3040 kPa	1085.5 kg/m3	–
343.15 K, 5040 kPa	1086.6 kg/m3	–
343.15 K, 6960 kPa	1087.5 kg/m3	–
343.15 K, 9920 kPa	1089 kg/m3	–
343.15 K, 14810 kPa	1091.6 kg/m3	–
343.15 K, 19680 kPa	1093.9 kg/m3	–
343.15 K, 24620 kPa	1096.4 kg/m3	–
343.15 K, 29580 kPa	1098.7 kg/m3	–
343.15 K, 34460 kPa	1101 kg/m3	–
343.15 K, 39370 kPa	1103.3 kg/m3	–
343.15 K, 44240 kPa	1105.4 kg/m3	–
343.15 K, 49160 kPa	1107.6 kg/m3	–
343.15 K, 54020 kPa	1109.7 kg/m3	–
343.15 K, 58940 kPa	1111.7 kg/m3	–
343.15 K, 63890 kPa	1113.8 kg/m3	–
343.15 K, 68680 kPa	1115.7 kg/m3	–
353.15 K, 100 kPa	1076 kg/m3	–
353.15 K, 650 kPa	1076.3 kg/m3	–
353.15 K, 1100 kPa	1076.5 kg/m3	–
353.15 K, 1550 kPa	1076.7 kg/m3	–
353.15 K, 2100 kPa	1077.1 kg/m3	–
353.15 K, 3050 kPa	1077.6 kg/m3	–
353.15 K, 5040 kPa	1078.6 kg/m3	–
353.15 K, 7010 kPa	1079.8 kg/m3	–
353.15 K, 9960 kPa	1081.3 kg/m3	–
353.15 K, 14810 kPa	1084 kg/m3	–
353.15 K, 19780 kPa	1086.5 kg/m3	–
353.15 K, 24610 kPa	1089 kg/m3	–
353.15 K, 29560 kPa	1091.9 kg/m3	–
353.15 K, 34450 kPa	1093.8 kg/m3	–
353.15 K, 39370 kPa	1096.1 kg/m3	–
353.15 K, 44270 kPa	1098.4 kg/m3	–
353.15 K, 49200 kPa	1100.6 kg/m3	–
353.15 K, 54090 kPa	1102.8 kg/m3	–
353.15 K, 59010 kPa	1104.9 kg/m3	–
353.15 K, 63820 kPa	1107 kg/m3	–
353.15 K, 68800 kPa	1109 kg/m3	–
362.88 K, 190 kPa	–	4.247 mPa·s [middle of 7 runs]
362.88 K, 1270 kPa	–	4.27 mPa·s [middle of 8 runs]
362.88 K, 1990 kPa	–	4.308 mPa·s and 4.283 mPa·s and 4.311 mPa·s
362.88 K, 2000 kPa	–	4.292 mPa·s [middle of 5 runs]
362.88 K, 4990 kPa	–	4.388 mPa·s [middle of 4 runs]
362.88 K, 5000 kPa	–	4.396 mPa·s and 4.394 mPa·s and 4.386 mPa·s
362.88 K, 10010 kPa	–	4.54 mPa·s and 4.522 mPa·s and 4.512 mPa·s
362.88 K, 10020 kPa	–	4.524 mPa·s [middle of 4 runs]
362.88 K, 19820 kPa	–	4.812 mPa·s
362.88 K, 19830 kPa	–	4.792 mPa·s and 4.786 mPa·s and 4.794 mPa·s
362.88 K, 19840 kPa	–	4.789 mPa·s
362.88 K, 29760 kPa	–	5.092 mPa·s
362.88 K, 29770 kPa	–	5.089 mPa·s
362.88 K, 29780 kPa	–	5.088 mPa·s
362.88 K, 29790 kPa	–	5.109 mPa·s
362.88 K, 39030 kPa	–	5.381 mPa·s
362.88 K, 39050 kPa	–	5.39 mPa·s
362.88 K, 39060 kPa	–	5.382 mPa·s
362.88 K, 39070 kPa	–	5.395 mPa·s
362.88 K, 39330 kPa	–	5.395 mPa·s
362.88 K, 50130 kPa	–	5.747 mPa·s
362.88 K, 50260 kPa	–	5.754 mPa·s
362.88 K, 50300 kPa	–	5.756 mPa·s
362.88 K, 50380 kPa	–	5.739 mPa·s
362.88 K, 50430 kPa	–	5.763 mPa·s
362.88 K, 67370 kPa	–	6.356 mPa·s
362.88 K, 67660 kPa	–	6.331 mPa·s
362.88 K, 67980 kPa	–	6.382 mPa·s
363.15 K, 100 kPa	1068.1 kg/m3 and 1068 kg/m3	–
363.15 K, 660 kPa	1068.4 kg/m3	–
363.15 K, 1120 kPa	1068.7 kg/m3	–
363.15 K, 1560 kPa	1068.9 kg/m3	–
363.15 K, 2130 kPa	1069.2 kg/m3	–
363.15 K, 3050 kPa	1069.8 kg/m3	–
363.15 K, 5090 kPa	1070.9 kg/m3	–
363.15 K, 6990 kPa	1072 kg/m3	–
363.15 K, 9980 kPa	1073.7 kg/m3	–
363.15 K, 14880 kPa	1076.4 kg/m3	–
363.15 K, 19680 kPa	1079 kg/m3	–
363.15 K, 24720 kPa	1081.7 kg/m3	–
363.15 K, 29630 kPa	1084.2 kg/m3	–
363.15 K, 34490 kPa	1086.6 kg/m3	–
363.15 K, 39430 kPa	1089 kg/m3	–
363.15 K, 44200 kPa	1091.4 kg/m3	–
363.15 K, 49240 kPa	1093.7 kg/m3	–
363.15 K, 54100 kPa	1095.9 kg/m3	–
363.15 K, 59010 kPa	1098.1 kg/m3	–
363.15 K, 63880 kPa	1100.2 kg/m3	–
363.15 K, 68830 kPa	1102.3 kg/m3	–
